# In US20230203060A1 (GENFLEET THERAPEUTICS (SHANGHAI) INC., priority 2020, published 2023):
# Columns and labels:
# [1] = system: phosphorylated ERK downstream of KRAS G12C in MIA PaCa2 cells; assay: Cell p-ERK detection experiment (HTRF) in MIA PaCa2; format: cell-based, human; conditions: Homo sapiens, MIA PaCa-2, 2 h, MIA PaCa2 cells, 2 hours with compound, Advance ERK phospho-T202/Y204 HTRF kit; read-out: p-ERK IC50
# Procedure, shortened: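 Phospho-ERK (T202/Y204) measured by HTRF after 30 min lysis and 4 h antibody incubation in MIA PaCa2 (KRAS G12C) cells, seeded at 2.5E4 per well and treated 2 h with compounds in 3.16-fold steps, final DMSO 0.1%. IC50 from a four-parameter fit of percent inhibition relative to DMSO and blank wells.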
# [2] = system: A549 cells (KRAS G12S mutant); assay: Cell proliferation inhibition experiment, 3D spheroid, CellTiter-Glo, A549; format: cell-based, human; conditions: Homo sapiens, A549, 120 h, A549 (KRAS G12S mutant) 3D spheroid, 5 days with compound, CellTiter-Glo; read-out: A549 IC50
# Procedure, shortened: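 3D spheroid format; 800 H358 / 400 A549 cells/well, 2% FBS. Cpd 3.16-fold series, 0.1% DMSO, 5 d. Readout CellTiter-Glo luminescence; IR% vs DMSO control and medium blank; 4-parameter IC50.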
IC50 [1] [nM],IC50 [2] [µM],SMILES
83,> 30,"C=CC(=O)N1CCN2C(=O)c3c(N4CC(C)(C)OC[C@@H]4C)nc(-c4c(O)cccc4F)c(Cl)c3OC[C@H]2C1 [Z276-1, (6aR)-8-acryloyl-4-chloro-3-(2-fluoro-6-hydroxyphenyl)-1-((S)-2,2,5-trimethylmorpholino)-6,6a,7,8,9,10-hexahydro-12H-pyrazino[2,1-c]pyrido[3,4-f][1,4]oxazepin-12-one]"
20,12.1,"C=CC(=O)N1CCN2C(=O)c3c(N4C[C@@H](O)CC4(C)C)nc(-c4c(O)cccc4F)c(F)c3OC[C@H]2C1 (single isomer, unassigned) [Z256-1]"
23,> 30,C=CC(=O)N1CCN2C(=O)c3c(N4CCN(C(C)=O)C[C@@H]4C)nc(-c4c(O)cccc4F)c(Cl)c3OC[C@H]2C1 [Z313-1]
59,5.51,"C=CC(=O)N1CCN2C(=O)c3c(N4C[C@@H](O)CC4(C)C)nc(-c4c(O)ccc(Cl)c4F)c(F)c3OC[C@H]2C1 (single isomer, unassigned) [Z340-1]"
8,3.34,"C=CC(=O)N1CCN2C(=O)c3c(N4CC(N(C)CCOC)CC4(C)C)nc(-c4c(O)cccc4F)c(Cl)c3OCC2C1 (single isomer, unassigned) [Z296-1]"
119,6.8,"C=CC(=O)N1CCN2C(=O)c3c(N4CCN(C)C[C@@H]4C)nc(-c4c(O)ccc(Cl)c4F)c(Cl)c3OC[C@H]2C1 [Z343, (6aR)-8-acryloyl-4-chloro-3-(3-chloro-2-fluoro-6-hydroxyphenyl)-1-((S)-2,4-dimethylpiperazin-1-yl)-6,6a,7,8,9,10-hexahydro-12H-pyrazino[2,1-c]pyrido[3,4-f][1,4]oxazepin-12-one]"
